The source of these data is patent US9161986B2, “Nanoparticle containing prostaglandin I2 derivative” (LTT BIO-PHARMA CO., LTD., priority 2011, dated 2015).

For series [1] the following is noted: oral; cited from earlier work.
For series [2], the system named is pulmonary vascular resistance. The conditions noted are these: treatment for three months, clinical trials; cited from earlier work.
A further series deals with cAMP. Briefly: Continuous increase of plasma cAMP after intravenous administration (cAMP ELISA). The conditions noted are these: intravenous via tail vein, rats, n=2; FIG. 6. It is filed as in vivo, male Wister rats. As for the experimental part:
Prostacyclin leads to relaxation of vascular smooth muscle and exerts a dilation effect on a pulmonary vessel by activating adenyl cyclase via a prostacyclin receptor on the vascular smooth muscle and increasing the concentration of cAMP. Therefore, the present inventors investigated whether cAMP increased continuously when the beraprost sodium-containing nanoparticle of the present invention was administered. Either beraprost sodium-containing nanoparticles or beraprost sodium (comparative example) was administered to male Wister rats (5 week old, n=2) intravenously via a tail vein. After administration, a tail vein different from the administration site was cut with a scalpel at specified times, and blood samples were collected by using blood collection tubes. […] This blood plasma sample was diluted as appropriate and cAMP contained in the […] was determined by using a cAMP ELISA kit. The method of measurement followed the protocol made by Assay Designs Inc.

A short description of series [3]: Evaluation of drug retention in blood after intravenous administration. It is filed as in vivo, male Wister rats. As to conditions: intravenous via tail vein, rats, n=3; FIG. 5. The protocol:
Either beraprost sodium nanoparticles or beraprost sodium (comparative example) was administered to male Wister rats (5 week old, n=3) intravenously via a tail vein. After administration, a tail vein different from the administration site was cut with a scalpel at specified times, and blood samples were collected by using blood collection tubes (heparin-treated). A sample solution was prepared by adding 50 μL, of the blood to a microfuge tube containing 1,4-dioxane (150 μL). The sample solution was centrifuged (13,200 rpm, 4° C., and 10 minutes), and then, beraprost sodium contained in the supernatant was determined by HPLC.

For series [4] the following is noted: in vivo; cited from earlier work.
Series [5] is described as follows: Formation of insoluble complex in presence or absence of ferric chloride. As to conditions: various amounts of diethanolamine. It is filed as physicochemical. As for the experimental part: To confirm this, the pH change of the solution and the percentage of beraprost sodium remaining in its supernatant when various amounts of diethanolamine (DEA) was added to the solution in the presence or absence of ferric chloride were examined.
Specifically, the pH of the solution was adjusted by adding diethanolamine to the aqueous solution of an iron ion of a specific concentration (455 mM) and beraprost sodium (32.5 mM) so that various pHs of the solution were obtained. The solution (suspension) was centrifuged at 16,500 g for 10 minutes, and the amount of beraprost sodium dissolved in the supernatant was determined by HPLC. The pH of the solution was also measured.
On the other hand, the pH of the solution was adjusted by adding diethanolamine to the aqueous solution of beraprost sodium (32.5 mM) in which hydrochloric acid was used instead of an iron ion of a specific concentration so that various pHs of the solution were obtained. The solution (suspension) was centrifuged at 16,500 g for 10 minutes, and the amount of beraprost sodium dissolved in the supernatant was determined by HPLC. The pH of the solution was also measured.

The conditions of series [6]: measure of chemical stability; cited from earlier work.
The test system of series [7] is primary pulmonary hypertension. The conditions noted are these: primary pulmonary hypertension group treated with epoprostenol; previous studies; cited from earlier work.

As for `CC#CCC(C)[C@H](O)/C=C/[C@@H]1[C@H]2c3cccc(CCCC(=O)[O-])c3O[C@H]2C[C@H]1O.[Na+]` (stereo partly drawn) [beraprost sodium], the “half-life of the blood concentration” value in series [1] was 1.1 h. Moreover, the pulmonary vascular resistance result in series [2] is on record as “significantly decreased the pulmonary vascular resistance”. Further, the “continuous increase of cAMP in the plasma” value in the series with cAMP is listed as “no continuous increase of cAMP was observed”. Besides, the “drug retention in the blood” value in series [3] is given as “little beraprost sodium existed in the blood as early as 3 hours after its administration”. In addition, the biological half-life entry in series [4] is recorded as “about 1.1 hours”. For the same compound, the “formation of insoluble complex” value in series [5] (in the absence of ferric chloride (hydrochloric acid instead), FIG. 3) is given as “no insoluble complex was formed”; in series [5] (in the presence of ferric chloride, FIG. 2), “formation of an insoluble complex”.

Take `CCCCC[C@H](O)/C=C/[C@@H]1[C@H]2C/C(=C/CCCC(=O)O)O[C@H]2C[C@H]1O` [epoprostenol]: the chemical half-life entry in series [6] is listed as “about 10 minutes”. Further, in series [7], the three-year survival rate entry is “about 70%”.
